Assay results reported in patent publication US8071325B2, “Flow cytometric method and kit for metal-induced sensitivity” (The Trustees of the University of Pennsylvania, priority 2004, dated 2011).
Marks after values point to notes of the source that are not given here.

Key:
[1] = test system: CFSE-labeled peripheral blood lymphocytes (CD3+, CD3+/CD4+, CD3+/CD8+ T cells); test: CFSE dye dilution proliferation measured by flow cytometry; format: cell-based, human; conditions: for proliferative ratio (PR, %M2/%M1): mean +/- SEM
Experimental: Cell surface marker staining was performed. The following monoclonal antibodies were used: Phycoerythin (PE) conjugated anti-human CD4, Tricolor-conjugated anti-human CD3, Allophycocyanin (APC) conjugated anti-human CD8 (Caltag, Burlingame, Calif.). The vital dye TO-PRO®-3 (Molecular Probes Inc., Eugene, Oreg.) was used to discriminate live and dead cells.
The CFSE labeling method was adapted from a previously described protocol. Aliquots of the same PBL sample used in the BeLPT assay were split and washed three times in 10 ml of phosphate buffered saline (dPBS, Gibco BRL, Grand Island, N.Y.) at room temperature. The cells were adjusted to 10^6 cells per milliliter, and CFSE (Molecular Probes, Eugene, Oreg.) was added at a final concentration of 1 μM/ml. The cells were vortexed for ten seconds and then incubated for ten minutes in the dark at room temperature with gentle shaking. After incubation an equal volume of sterile, heat inactivated human serum (Gibco BRL, Grand Island, N.Y.) was added to the sample for one minute to quench the reaction. The cells were washed twice, adjusted to the concentration 2×10^6/ml in 10% human heat inactivated serum.
Following CFSE (carboxy fluorescein diacetate succinimide ester) labeling, the cells were cultured in 24-well plates at 2×10^6 per well in the presence of either media alone, PHA, Candida, or either 10 or 100 μM of beryllium sulfate. The cells were incubated for seven days at 37° C. and 5% CO2. Preliminary experiments titrated the optimal dose of CFSE and time of incubation. Surface labeling was performed at the time of harvest using CD3TC, CD4PE and CD8APC in some experiments. TO-PRO®-3 was added to define live cells in some experiments.
All data were acquired on a four-color, dual laser FACSCalibur (Becton Dickinson, San Jose, Calif.). CFSE was measured in Fl-1 channel (530/30-nm bandpass filter), CD4PE in the Fl-2 channel (585/42-nm bandpass filter), CD3TC in the Fl-3-channel (670-nm longpass filter) using excitation from the 488 nm blue laser and TO-PRO®-3 or CD8APC in Fl-4 channel (661/16 bandpass filter) by excitation using the 635 nm red diode laser. Compensation for CFSE in multiparameter flow cytometry is dose dependent and determined empirically.
The basic analysis gating strategy was as follows (FIG. 1): for analysis of CD3+ T cells alone, an initial region was defined as lymphocytes by light scatter and a broad region was set to include medium to high forward/low side scatter events after stimulation with PHA (FIG. 1A, R1) to include all proliferating lymphocytes. For CD3+ T cells, the R1 data were plotted in a contour plot of CD3TC versus TO-PRO®-3 to identify the live CD3+ T Cells (FIG. 1B, R2). The R2 population was expressed on a contour plot of CD3+CD4+ where a double positive region was defined as R3 (FIG. 1C). For final analyses, each population was then analyzed for CFSE (FL1) fluorescence, representing proliferation, on a single parameter histogram using a logical gate of either R1*R2 for CD3+ cells only and R1*R2*R3 for CD3+4+ cells. In experiments where only data from CD3+ or CD3+4+ cells were collected, a live gate on TO-PRO®-3 negative (“viable”) cells was also used in acquisition. When specific CD4+ and CD8+ T cell determination was performed, the viability dye was eliminated. The strategy was similar to that above with light scatter gating (R1) followed by identification of the CD3+ events using a SSC vs CD3+ plot (R2) and CD4+ (R3) and CD8+(R4) identification followed by single parameter histogram analysis of the CFSE fluorescence (for CD4+, R1*R2*R3; for CD8, R1*R2*R4*).
CFSE flow cytometric data files were analyzed using CellQuest™ acquisition/analysis software (Becton Dickinson, San Jose, Calif.). Fifty thousand (50,000) events were collected. The data are reported as the proliferative ratio (PR) defined as the ratio of the percentage of divided cells to undivided cells on day 7 (%M2/%M1). […]

[2] = test system: Peripheral blood lymphocytes (PBLs); test: Blood BeLPT (3H-thymidine incorporation assay); format: cell-based, human; conditions: for stimulation index (SI): mean ± SEM
Experimental: Beryllium workers (present and former), referred to the Hospital of the University of Pennsylvania (HUP) for possible CBD, were tested. […] CBD was diagnosed when there was evidence of BH with granulomas on biopsy and/or radiologic changes consistent with a granulomatous process. Normal unexposed volunteers were used as controls.
Peripheral blood lymphocytes (PBLs) were isolated from heparinized blood under sterile conditions using density centrifugation with lymphocyte separation medium (ICN Biomedicals Inc., Aurora, Ohio). Blood BeLPT was performed. The cells were cultured at a concentration of 2.5×10^5 cells/well. Stimulants included 500 μg/ml of phytohemagglutinin (PHA) (L-9132; Sigma Chemical Co., St Louis, Mo.), 20 μl/ml of Candida(M15; Greer Labs, Lenoir, N.C.) and 100 μM or 10 μM of beryllium sulfate (Blush Wellman, Cleveland, OH). After culturing the cells in an incubator (5% CO2 and 37° C.) for 3, 5 or 7 days, the cells were pulsed with ^3H thymidine (DuPont NEN, Boston, Mass.) overnight (ice. 16-24 hours) and then harvested on a filter fiber (Wallac, Turku, Finland). The uptake of ^3H thymidine was measured as counts per minute (CPM) using a Wallac 1205 beta plate liquid scintillation system (Wallac Inc., Gaithersburg, Md.). Results were expressed as a stimulation index (SI=mean CPM of test wells/mean CPM of control wells). A positive response was defined as a SI>3.0 for blood A positive test required that a positive response be recorded on two different days or at two different concentrations of beryllium.
All values are presented as ± SEM (standard error of the mean). Data are only presented if a minimum of 1,000 cells were detected within a population. For the tritiated thymidine test, the results were expressed as a stimulation index and group differences (between controls and beryllium-sensitive populations) were evaluated using the Student's T test. For the CFSE tests, since the results were expressed as PR, the Mann-Whitney version of the […] was used to determine if there was a difference between the normal donors and the beryllium exposed patients. Statistical significance was defined as p<0.05.

With O=S(=O)([O-])[O-].[Be+2] [Be, beryllium sulfate] the “CFSE-determined response, sensitized versus controls (in words)” value ([1]; CD3+ and CD3+/CD4+ T cells from beryllium-sensitized subjects, both doses) was “significant difference”, the “CFSE-determined response (in words)” value ([1]; CD3+ or CD3+/CD4+ high cells from controls, 10 or 100 μM) was “minimal response” and the “proliferative ratio (PR, %M2/%M1)” value ([1]; CD3+/CD4+, Be 10 μM, day 7, beryllium-exposed sensitized (n = 24)) was 0.105 ± 0.038. For the same compound, the “proliferative ratio (PR, %M2/%M1)” value ([1]; CD3+/CD4+, Be 10 μM, day 7, normal controls (n = 9)) was 0.027 ± 0.005, the “proliferative ratio (PR, %M2/%M1)” value ([1]; CD3+/CD4+, Be 100 μM, day 7, beryllium-exposed sensitized (n = 24)) was 0.089 ± 0.027 and the “proliferative ratio (PR, %M2/%M1)” value ([1]; CD3+/CD4+, Be 100 μM, day 7, normal controls (n = 9)) was 0.029 ± 0.010. The “proliferative ratio (PR, %M2/%M1)” value ([1]; CD3+, Be 10 μM, day 7, beryllium-exposed sensitized (n = 24)) was 0.115 ± 0.046, the “proliferative ratio (PR, %M2/%M1)” value ([1]; CD3+, Be 10 μM, day 7, normal controls (n = 9)) was 0.027 ± 0.005 and the “proliferative ratio (PR, %M2/%M1)” value ([1]; CD3+, Be 100 μM, day 7, beryllium-exposed sensitized (n = 24)) was 0.099 ± 0.026. The “proliferative ratio (PR, %M2/%M1)” value ([1]; CD3+, Be 100 μM, day 7, normal controls (n = 9)) was 0.030 ± 0.008, the “CFSE-determined response, sensitized versus normal donors (in words)” value ([1]; CD8+ T cells, normal donors or beryllium-sensitized individuals) was “no differences were noted” and the “proliferative ratio (PR, %M2/%M1)” value ([1]; Table 3 series (CD8 APC staining), CD3+, Be 10 μM, beryllium-exposed sensitized (n = 14)) was 0.156 +/− 0.114‡. The “proliferative ratio (PR, %M2/%M1)” value ([1]; Table 3 series (CD8 APC staining), CD3+, Be 10 μM, normal controls (n = 6)) was 0.012 +/− 0.002^†, the “proliferative ratio (PR, %M2/%M1)” value ([1]; Table 3 series (CD8 APC staining), CD3+, Be 100 μM, beryllium-exposed sensitized (n = 14)) was 0.188 +/− 0.137‡ and the “proliferative ratio (PR, %M2/%M1)” value ([1]; Table 3 series (CD8 APC staining), CD3+, Be 100 μM, normal controls (n = 6)) was 0.013 +/− 0.002. For the same compound, the “proliferative ratio (PR, %M2/%M1)” value ([1]; Table 3 series, CD4+ (CD3+/CD4+), Be 10 μM, beryllium-exposed sensitized (n = 14)) was 0.164 +/− 0.112‡, the “proliferative ratio (PR, %M2/%M1)” value ([1]; Table 3 series, CD4+ (CD3+/CD4+), Be 10 μM, normal controls (n = 6)) was 0.015 +/− 0.003 and the “proliferative ratio (PR, %M2/%M1)” value ([1]; Table 3 series, CD4+ (CD3+/CD4+), Be 100 μM, beryllium-exposed sensitized (n = 14)) was 0.210 +/− 0.114‡. The “proliferative ratio (PR, %M2/%M1)” value ([1]; Table 3 series, CD4+ (CD3+/CD4+), Be 100 μM, normal controls (n = 6)) was 0.015 +/− 0.002, the “proliferative ratio (PR, %M2/%M1)” value ([1]; Table 3 series, CD8+ (CD3+/CD8+), Be 10 μM, beryllium-exposed sensitized (n = 11)) was 0.016 +/− 0.003 and the “proliferative ratio (PR, %M2/%M1)” value ([1]; Table 3 series, CD8+ (CD3+/CD8+), Be 10 μM, normal controls (n = 4)) was 0.013 +/− 0.003. For the same compound, the “proliferative ratio (PR, %M2/%M1)” value ([1]; Table 3 series, CD8+ (CD3+/CD8+), Be 100 μM, beryllium-exposed sensitized (n = 11)) was 0.019 +/− 0.002, the “proliferative ratio (PR, %M2/%M1)” value ([1]; Table 3 series, CD8+ (CD3+/CD8+), Be 100 μM, normal controls (n = 4)) was 0.011 +/− 0.004 and the “CFSE-determined response (in words)” value ([1]; beryllium-sensitive population, CD3+ population, 10 μM, p<0.05) was “significant positive response”. The “CFSE-determined response (in words)” value ([1]; beryllium-sensitive population, CD3+/CD4+ population, 10 μM and 100 μM, p<0.05) was “significant positive response”, the “stimulation index (SI)” value ([2]; Day 5, Be 10 μM, beryllium-exposed sensitized (n = 24)) was 12.1 ± 3.96 and the “stimulation index (SI)” value ([2]; Day 5, Be 10 μM, normal controls (n = 9)) was 0.72 ± 0.08. The “stimulation index (SI)” value ([2]; Day 5, Be 100 μM, beryllium-exposed sensitized (n = 24)) was 12.8 ± 4.93, the “stimulation index (SI)” value ([2]; Day 5, Be 100 μM, normal controls (n = 9)) was 0.74 ± 0.09 and the “stimulation index (SI)” value ([2]; Day 7, Be 10 μM, beryllium-exposed sensitized (n = 24)) was 12.5 ± 4.43. For the same compound, the “stimulation index (SI)” value ([2]; Day 7, Be 10 μM, normal controls (n = 9)) was 0.44 ± 0.08, the “stimulation index (SI)” value ([2]; Day 7, Be 100 μM, beryllium-exposed sensitized (n = 24)) was 11.5 ± 4.86 and the “stimulation index (SI)” value ([2]; Day 7, Be 100 μM, normal controls (n = 9)) was 0.52 ± 0.12. The “proliferative response by thymidine incorporation (in words)” value (“proliferative response” for short) ([2]; beryllium-sensitized population, p<0.05) was “positive responses were noted” and the “proliferative response” value ([2]; control group) was “positive responses to beryllium were not noted”.
For phytohemagglutinin [PHA], the “CFSE-determined response (in words)” value ([1]; CD3+ and CD3+CD4+ cells from both the control and the beryllium-sensitive populations) was “positive responses”, the “CFSE-determined response (in words)” value ([1]; CD3+, CD3+/CD4+ and CD3+/CD8+ T cells from controls (n=6) and beryllium-sensitized (n=14) populations) was “responded” and the “proliferative ratio (PR, %M2/%M1)” value ([1]; CD3+/CD4+, PHA, day 7, beryllium-exposed sensitized (n = 24)) was 15.756 ± 5.094. For the same compound, the “proliferative ratio (PR, %M2/%M1)” value ([1]; CD3+/CD4+, PHA, day 7, normal controls (n = 9)) was 10.064 ± 2.753, the “proliferative ratio (PR, %M2/%M1)” value ([1]; CD3+, PHA, day 7, beryllium-exposed sensitized (n = 24)) was 10.358 ± 4.730 and the “proliferative ratio (PR, %M2/%M1)” value ([1]; CD3+, PHA, day 7, normal controls (n = 9)) was 9.853 ± 2.908. The “stimulation index (SI)” value ([2]; Day 3, PHA 500 μg/ml, beryllium-exposed sensitized (n = 24)) was 178 ± 23.2, the “stimulation index (SI)” value ([2]; Day 3, PHA 500 μg/ml, normal controls (n = 9)) was 137 ± 38.9 and the “proliferative response” value ([2]; control and beryllium-sensitized populations, PHA on day 3, Candida on day 5 and on day 7) was “Positive responses”.
